Experimental data published in publication PMC8041284, “Tunable Methacrylamides for Covalent Ligand Directed Release Chemistry” (Journal of the American Chemical Society, 2021).
Where two headings read alike, the source gives them in different places.

Target: BTK (Homo sapiens, UniProt Q06187)
Experiment: biochemical
[1] = read-out: BTK inhibition (%), 0.75 uM BTK, […] probe 3l, 15 min preincubation

Chain of BTK (Q06187 402-655 limits assumed): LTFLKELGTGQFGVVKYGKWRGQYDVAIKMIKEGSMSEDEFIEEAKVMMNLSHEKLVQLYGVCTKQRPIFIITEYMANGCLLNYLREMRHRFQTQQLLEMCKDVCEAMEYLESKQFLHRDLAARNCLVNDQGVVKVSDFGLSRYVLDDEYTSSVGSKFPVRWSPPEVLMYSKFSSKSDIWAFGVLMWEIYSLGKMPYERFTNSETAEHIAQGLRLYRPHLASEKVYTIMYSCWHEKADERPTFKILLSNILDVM

Cc1cc(Nc2ncc3c(n2)N(C)C(=O)N(c2cc(NC(=O)c4cccc(C(F)(F)F)c4)ccc2C)C3)n(C)n1 [PCM-0215636]
inhibition at 10 µM [1]: 104%

CC(C)c1cc2c(c(O)c1O)[C@@]13CCCC(C)(C)[C@@H]1C[C@@H]2OC3=O [PCM-0216410]
inhibition at 10 µM [1]: 10.8%

COc1cc(OCc2cccc(-c3ccccc3)c2C)cc(OC)c1CN1CCCC[C@H]1C(=O)O [PCM-0215607]
inhibition at 10 µM [1]: -35.2%

O=C(O)c1cc(=O)cc(C(=O)O)o1 [PCM-0216206]
inhibition at 10 µM [1]: -6.2%

COc1c(-c2ccc3cc(NS(C)(=O)=O)ccc3c2)cc(-n2ccc(=O)[nH]c2=O)cc1C(C)(C)C [PCM-0216081]
inhibition at 10 µM [1]: 73.4%

CC/C(=C(/CC)c1ccc(O)cc1)c1ccc(O)cc1 [PCM-0086456]
inhibition at 10 µM [1]: -26.5%

CC(C)(O)CC(=O)NCCn1ccc2ncnc(Nc3ccc(Oc4cccc(C(F)(F)F)c4)c(Cl)c3)c21 [PCM-0095364]
inhibition at 10 µM [1]: 73.8%

C=CCNC(N)=S [PCM-0090807]
inhibition at 10 µM [1]: -18.7%

CO[C@H]1O[C@H](COS(=O)(=O)O)[C@@H](O[C@@H]2O[C@@H](C(=O)O)[C@@H](O[C@H]3O[C@H](COS(=O)(=O)O)[C@@H](O[C@@H]4O[C@H](C(=O)O)[C@@H](O[C@H]5O[C@H](COS(=O)(=O)O)[C@@H](O)[C@H](O)[C@H]5NS(=O)(=O)O)[C@H](O)[C@H]4O)[C@H](OS(=O)(=O)O)[C@H]3NS(=O)(=O)O)[C@H](O)[C@H]2OS(=O)(=O)O)[C@H](O)[C@H]1NS(=O)(=O)O [PCM-0215897]
inhibition at 10 µM [1]: -13.6%

N=C(N)c1ccc(OCCCCCOc2ccc(C(=N)N)cc2)cc1 [PCM-0064878]
inhibition at 10 µM [1]: -4.7%

C=CCc1ccc(O)c(-c2cc(CC=C)ccc2O)c1 [PCM-0094865]
inhibition at 10 µM [1]: 16.3%

Cc1nc2ccc(CN(C)c3ccc(C(=O)N[C@@H](CCC(=O)O)C(=O)O)s3)cc2c(=O)[nH]1 [PCM-0095076]
inhibition at 10 µM [1]: 1.6%

CC(C)(C)OC(=O)N[C@@H]1CCCC[C@H]1N [PCM-0215045]
inhibition at 10 µM [1]: -24.1%

O=C(Nc1cccnc1)N1CCC(Cc2cccc(Oc3ccc(C(F)(F)F)cn3)c2)CC1 [PCM-0095330]
inhibition at 10 µM [1]: -4.8%

CC(=O)N[C@H]1[C@H]([C@H](O)[C@H](O)CO)OC(C(=O)O)=C[C@@H]1N=C(N)N [PCM-0095451]
inhibition at 10 µM [1]: -4.3%

C=CCn1c(=O)c2cnc(Nc3ccc(N4CCN(C)CC4)cc3)nc2n1-c1cccc(C(C)(C)O)n1 [PCM-0095195]
inhibition at 10 µM [1]: 37.2%

CCN(C(=O)c1c(O)c2c(Cl)cccc2n(C)c1=O)c1ccccc1 [PCM-0095368]
inhibition at 10 µM [1]: 11%

C[C@H]1CO[C@@H]2Cn3cc(C(=O)NCc4ccc(F)cc4F)c(=O)c(O)c3C(=O)N12 [PCM-0215445]
inhibition at 10 µM [1]: 24.7%

NCC(=O)Nc1ccc(-n2nc(C(F)(F)F)cc2-c2ccc3c(ccc4ccccc43)c2)cc1 [PCM-0094886]
inhibition at 10 µM [1]: 70.3%

Nc1ccnc(=O)[nH]1 [PCM-0215139]
inhibition at 10 µM [1]: -5.4%

O=C1CCc2cc(OCCCCc3nnnn3C3CCCCC3)ccc2N1 [PCM-0064629]
inhibition at 10 µM [1]: -19.5%

CCN(CC)C(=O)c1ccc(C2=CC3(CCNCC3)Oc3cccc(O)c32)cc1 [PCM-0094948]
inhibition at 10 µM [1]: -14%

CCCCCCCCCCCCCC(=O)O [PCM-0216589]
inhibition at 10 µM [1]: 1.7%

CC(C)Oc1ccc(-c2nn([C@@H](C)c3oc4ccc(F)cc4c(=O)c3-c3cccc(F)c3)c3ncnc(N)c23)cc1F [PCM-0215802]
inhibition at 10 µM [1]: -2.1%

COc1cc2c(cc1OC)[C@@H]1Cc3ccc(OC)c(OC)c3CN1CC2 [PCM-0094863]
inhibition at 10 µM [1]: 3.9%

CC(C)N(CC[C@H](c1ccccc1)c1cc(CO)ccc1O)C(C)C [PCM-0095530]
inhibition at 10 µM [1]: 3.9%

CCCC(CCC)C(=O)OC1C[C@H]2CC[C@@H](C1)[N+]2(C)C (stereo partly shown) [PCM-0215249]
inhibition at 10 µM [1]: -37.4%

CC(C)OC(=O)CCC/C=C\C[C@@H]1[C@@H](/C=C/[C@@H](O)COc2cccc(C(F)(F)F)c2)[C@H](O)C[C@@H]1O [PCM-0215893]
inhibition at 10 µM [1]: -28%

COCC1=C(C(=O)OC(C)OC(=O)OC(C)C)N2C(=O)[C@@H](NC(=O)/C(=N\OC)c3csc(N)n3)[C@H]2SC1 (stereo partly shown) [PCM-0216141]
inhibition at 10 µM [1]: -11.6%

CC(O)(CS(=O)(=O)c1ccc(F)cc1)C(=O)Nc1ccc(C#N)c(C(F)(F)F)c1 (stereo not shown) [PCM-0065600]
inhibition at 10 µM [1]: 11.7%

NC(=O)NO [PCM-0065169]
inhibition at 10 µM [1]: 10.9%

O=C(Cc1cccc(OC(F)(F)F)c1)Nc1ccc(CCCCc2nnc(NC(=O)Cc3ccccn3)s2)nn1 [PCM-0215461]
inhibition at 10 µM [1]: 0%

COc1ccc(-n2c(SCCCN3C(=O)c4cccc5cccc(c45)C3=O)nnc2-c2ccncc2)cc1 [PCM-0215315]
inhibition at 10 µM [1]: -9.3%

CN(C)CCCN1c2ccccc2Sc2ccc(Cl)cc21 [PCM-0064436]
inhibition at 10 µM [1]: -16.3%

COc1ccc(S(=O)(=O)N(C(C)=O)c2ccccc2/C=C/c2cc[n+]([O-])cc2)cc1 [PCM-0095165]
inhibition at 10 µM [1]: -18.6%

Cc1cccc(C#Cc2ccccc2)n1 [PCM-0065388]
inhibition at 10 µM [1]: -10.9%

C=C1c2cccc(O)c2C(O)=C2C(=O)[C@]3(O)C(O)=C(C(N)=O)C(=O)[C@@H](N(C)C)[C@@H]3[C@@H](O)[C@H]12 [PCM-0215189]
inhibition at 10 µM [1]: 17%

CC[C@@H]1/C=C(\C)C[C@H](C)C[C@H](OC)[C@H]2O[C@@](O)(C(=O)C(=O)N3CCCC[C@H]3C(=O)O[C@H](/C(C)=C/[C@@H]3CC[C@@H](O)[C@H](OC)C3)[C@H](C)[C@@H](O)CC1=O)[C@H](C)C[C@@H]2OC [PCM-0215308]
inhibition at 10 µM [1]: 6.9%

COC(=O)c1ccc(O)c(C(=O)OC)c1 [PCM-0215105]
inhibition at 10 µM [1]: -13.1%

Cc1cc(C)c(CNC(=O)c2cc(-c3ccc(N4CCN(C)CC4)nc3)cc3c2c(C)cn3C(C)C)c(=O)[nH]1 [PCM-0215513]
inhibition at 10 µM [1]: -6.9%

C[C@H]1O[C@@H](O[C@H]2CC[C@@]3(C)[C@@H](CC[C@]4(C)[C@@H]3C=C[C@]35OC[C@@]6(CCC(C)(C)C[C@H]63)[C@@H](O)C[C@]54C)[C@]2(C)CO)[C@H](O)[C@@H](O[C@@H]2O[C@H](CO)[C@@H](O)[C@H](O)[C@H]2O)[C@H]1O [PCM-0216249]
inhibition at 10 µM [1]: -23.4%

CC(C)S(=O)(=O)c1ccc2nccc(Nc3ccc4scnc4c3)c2c1 [PCM-0213432]
inhibition at 10 µM [1]: 26.2%

COc1ccc(-c2cc(=O)c3c(O)cc(O)cc3o2)cc1 [PCM-0216090]
inhibition at 10 µM [1]: 16.6%

O=C(CCN1CCN(C(=O)OCc2cc(Cl)cc(Cl)c2)CC1)c1ccc2[nH]c(=O)oc2c1 [PCM-0215647]
inhibition at 10 µM [1]: -4.6%

O=c1ccc2ccc(OCCCCN3CCN(c4cccc5sccc45)CC3)cc2[nH]1 [PCM-0214822]
inhibition at 10 µM [1]: 0.8%

CSc1cccc(Nc2ncc3cc(-c4c(Cl)cccc4Cl)c(=O)n(C)c3n2)c1 [PCM-0215338]
inhibition at 10 µM [1]: -18.6%

CNc1ncc2cc(-c3cc(NC(=O)NCCC(C)(C)C)c(F)cc3C)c(C)nc2n1 [PCM-0215477]
inhibition at 10 µM [1]: 40.9%

Cc1cc(=O)oc2c([N+](=O)[O-])c(O)ccc12 [PCM-0216627]
inhibition at 10 µM [1]: 13.1%

C[C@@H]1O[C@@H](O[C@@H]2[C@@H](O)[C@H](OCCc3ccc(O)c(O)c3)O[C@H](COC(=O)/C=C/c3ccc(O)c(O)c3)[C@H]2O)[C@H](O)[C@H](O)[C@H]1O [PCM-0216411]
inhibition at 10 µM [1]: -11.6%

Cc1ccc(Cl)c(Nc2ccccc2C(=O)O)c1Cl [PCM-0214800]
inhibition at 10 µM [1]: 9.7%

CC(=O)c1ccccc1O [PCM-0216621]
inhibition at 10 µM [1]: 0.8%

NC(=O)c1ccc(-c2nc(-c3ccc4c(c3)OCCO4)c(-c3ccccn3)[nH]2)cc1 [PCM-0215472]
inhibition at 10 µM [1]: 17.2%

OCCOCCN1CCN(C(c2ccccc2)c2ccc(Cl)cc2)CC1 (stereo not shown) [PCM-0085866]
inhibition at 10 µM [1]: 4.1%

CCN1CCN(C(=O)Cc2ccc(Nc3ncc(F)c(Nc4ccc(C(=O)Nc5ccccc5Cl)cc4)n3)cc2)CC1 [PCM-0095121]
inhibition at 10 µM [1]: 40.7%

CC1(C)[C@H]2CC[C@]1(C)[C@H](O)C2 [PCM-0215078]
inhibition at 10 µM [1]: -20.2%

O=C1c2cccc3c2[C@H](CCC3)CN1[C@@H]1CN2CCC1CC2 [PCM-0095539]
inhibition at 10 µM [1]: 4.3%

CCCCOc1ccc(CC(=O)NO)cc1 [PCM-0085771]
inhibition at 10 µM [1]: 6.9%

O=C(NCC1(c2nc(-c3ccccc3)cs2)CCOCC1)c1cccc(-c2noc(C(F)(F)F)n2)c1 [PCM-0215333]
inhibition at 10 µM [1]: -9.3%

OC(c1cc(-c2ccc(Cl)cc2)nc2ccccc12)C1CCCCN1 (stereo not shown) [PCM-0215603]
inhibition at 10 µM [1]: 19.3%

Clc1ccc(C(c2c[nH]c3ccccc23)c2c[nH]c3ccccc23)cc1 [PCM-0215640]
inhibition at 10 µM [1]: 71.7%

CCCC(=O)OCOC(=O)C1=C(C)NC(C)=C(C(=O)OC)C1c1cccc(Cl)c1Cl (stereo not shown) [PCM-0095244]
inhibition at 10 µM [1]: 18.7%

COc1ccc2cc1Oc1ccc(cc1)C[C@H]1c3c(cc4c(c3Oc3cc5c(cc3OC)CCN(C)[C@@H]5C2)OCO4)CCN1C [PCM-0214760]
inhibition at 10 µM [1]: 30.4%

C[C@]1(c2nc3c(C(N)=O)cccc3[nH]2)CCCN1 [PCM-0094885]
inhibition at 10 µM [1]: -6.2%

Cn1c(=O)cc(C(=O)Nc2ccc3c(c2)OCCO3)c2ccccc21 [PCM-0215702]
inhibition at 10 µM [1]: -3.9%

COCCNc1cc(NC(=O)N2CCCc3cc(CN4CCN(C)CC4=O)c(C=O)nc32)ncc1C#N [PCM-0216117]
inhibition at 10 µM [1]: -16.2%

Cc1cccc(Nc2ccccc2C(=O)O)c1C [PCM-0085867]
inhibition at 10 µM [1]: 17.2%

O=C(O)/C(Cc1ccccc1[N+](=O)[O-])=N/Nc1nc(-c2ccc(Cl)c(Cl)c2)cs1 [PCM-0215282]
inhibition at 10 µM [1]: 54.8%

C[C@H]1CC(=O)C[C@@H]2CC[C@H]3[C@@H]4CC[C@H](O)[C@@]4(C)CC[C@@H]3[C@]21C [PCM-0214988]
inhibition at 10 µM (read-out: BTK inhibition (%)): -20.2%

O=C(Nc1ccc(O)c(C(=O)O)c1)c1cccc(NC(=O)c2ccco2)c1 [PCM-0215939]
inhibition at 10 µM [1]: -8.5%

O=C(c1ccc(OCCN2CCCCC2)cc1)c1c(-c2ccc(O)cc2)sc2cc(O)ccc12 [PCM-0065394]
inhibition at 10 µM [1]: 85.5%

Cc1cc(Cl)ccc1OCCCC(=O)NO [PCM-0064710]
inhibition at 10 µM [1]: 7%

Cc1[nH]c2ccccc2c1CCNCc1ccc(/C=C/C(=O)NO)cc1 [PCM-0095679]
inhibition at 10 µM [1]: 0.8%

Cc1ccc(-c2c(-c3nn(C)c4ncnc(N5CC[C@H](N6CCCCC6)C5)c34)cnn2C)cc1 [PCM-0095421]
inhibition at 10 µM [1]: -2.3%
